Data on 10 compounds can be found in PMC8978639, “Fine-tuning of the pharmacological potential of novel thiazolium ionic liquids by anion alteration” (RSC Advances, 2021).

In brackets after ≈: the same amount, converted by molar mass. Where two headings read alike, the source gives them in different places.

A word on the MBC: it is the lowest tested concentration that kills the bacteria rather than only halting them. A word on the MIC: it is the lowest concentration found to suppress growth. What is called IC50 is the concentration that gives 50% inhibition. A lower IC50 goes with inhibition by little substance. As a reminder, the viability is a per cent measure of how many cells are alive, often set against a control.

Series [1] deals with S.aureus. On the set-up: method as in doi:10.1039/b921805j, doi:10.1016/j.molliq.2016.05.093. The following applies: cited from earlier work.
Series [2] concerns E.coli. On the set-up: method as in doi:10.1039/b921805j, doi:10.1016/j.molliq.2016.05.093. As to conditions: cited from earlier work.
Series [3] relates to E. coli (ATCC-25922). The series can be described thus: Minimal inhibitory/bactericidal concentrations (MIC/MBC). It is filed as cell-based, Escherichia coli. The text has this:
(§1) The antimicrobial activity of newly synthesized benzyl thiazolium ionic liquids (BTILs) was investigated in vitro against the most common foodborne bacterial strains (Staphylococcus aureus (S. aureus, ATCC-25923) and Escherichia coli (E. coli, ATCC-25922)) in comparison with clinical drugs (Gentamycin (Gm) and Tetracyclin (TC)). These tests have been conducted in accordance with the standard antimicrobial assessment protocols we've described and used in our previous studies.[29] The diameters of the zone of inhibition (ZOI, mm), values of minimum inhibitory concentration (MIC), and minimal bactericidal concentration (MBC) were used as markers for the antimicrobial efficacy of the tested compounds.
(§2) As evident in Table 2, the results of MIC and MBC are in general accordance with the Well diffusion assay. […] In the literature, quantitative information on the antimicrobial activity of short-chained and benzyl-functionalized ionic liquids is scarce. In this context, few studies have reported the antibacterial impact of 1-alkyl-3-methylimidazolium ionic liquids, bound to different anions, upon various pathogenic bacteria.

Series [4] deals with S. aureus (ATCC-25923). The description is as above. It is filed as cell-based, Staphylococcus aureus. The following applies: for MBC ± SD / MIC ± SD: S. aureus.
Description: as §1, §2

Series [5] has as its system Staphylococcus aureus (S. aureus, ATCC-25923). The series can be described thus: Well diffusion assay (zone of inhibition). The class given is cell-based. The text has this: The antimicrobial activity of newly synthesized benzyl thiazolium ionic liquids (BTILs) was investigated in vitro against the most common foodborne bacterial strains (Staphylococcus aureus (S. aureus, ATCC-25923) and Escherichia coli (E. coli, ATCC-25922)) in comparison with clinical drugs (Gentamycin (Gm) and Tetracyclin (TC)). […] The diameters of the zone of inhibition (ZOI, mm), values of minimum inhibitory concentration (MIC), and minimal bactericidal concentration (MBC) were used as markers for the antimicrobial efficacy of the tested compounds.
The antibacterial activities of novel TILs against S. aureus and E. coli were screened in vitro, as compared to clinical antibiotics (Gentamycin (Gm) and Tetracyclin (TC)). […] Gram-negative bacteria' outer membranes, which are composed of impermeable lipopolysaccharides (LPS), phospholipids, and lipoproteins, may act as a barrier to the entry of antimicrobial molecules, whereas Gram-positive bacteria's outer membranes have no LPS layer and are composed only of a thick peptidoglycan layer which can easily absorb and transfer such antimicrobials to the inner cell membrane.[43]
(In general: Agar diffusion results depend on both activity and mobility in agar.)

The test system of series [6] is normal human skin fibroblast cells (HSF). The series can be described thus: MTT cytotoxicity assay. It is filed as cell-based. As to conditions: HSF, MTT, 24 h of treatment. The procedure: (§3) The antiproliferative activity of novel BTILs was tested in vitro against two cell lines: ovarian cancer (SKOV-3) and normal human skin fibroblast cells (HSF) using the standard MTT cytotoxicity assay described in our previous work.[30] The cell viability ratios, half-maximal inhibitory concentration (IC50), and selectivity index (SI) were used as performance indices for the cytotoxicity of tested compounds. The clinical anticancer drug (cisplatin, CDDP) was used as a positive control.
(§4) To explore the selectivity of the newly synthesized TILs for attacking cancer cells over normal ones, the effects of serial concentrations (0–200 μM) of these TILs on the proliferation of normal human skin fibroblast (HSF) cells were also studied for a period of 24 h. […] For example, treatment of both cell lines with 100 μM of [^iPBzTh][Tf2N] […] [MBzTh][BF4]
(In general: Tetrazolium assays rely on reduction of a dye to a coloured formazan, in cell work by metabolically active cells.)

Series [7] is described as follows: MTT cytotoxicity assay. The class given is cell-based, human. As to conditions: human, normal human skin fibroblast (HSF) cells; 200 μM, 24 h. The method, then:
as §3, §4

Series [8] in a line: Viscosity by capillary viscometer. The class given is physicochemical. As to conditions: at 50 °C and concentrations 0.5 mg mL^−1, capillary viscometer. The text has this: Also, the viscosity of new benzyl thiazolium ionic liquids depends on the intrinsic structural features of the cation and anion. […] This behavior can be explained based on the fact that the extremely hydrophobic Tf2N^− anion, enriched with fluorine electrons, exerts higher ion–ion interactions with hydrophobic tert-butylbenzyl-methylthiazolium cation, resulting in an increase in viscosity.[35]

Series [9] deals with ovarian carcinoma cell lines (SKOV-3). The series can be described thus: MTT cytotoxicity assay. The class given is cell-based, human. The following applies: for IC50: SKOV-3, MTT, 24 h of treatment; for Selectivity index (SI): cancer cells (SKOV-3) over normal ones (HSF). The procedure: as §3
The use of ionic liquids (ILs) in pharmaceutical and medicinal chemistry has recently piqued the interest of researchers across the globe.[12] In this scenario, several studies have documented the anticancer potential of ILs.[20,48] In order to find potential safe anticancer candidates, the cytotoxicity of imidazolium, ammonium, pyridinium, and phosphonium ILs was tested against over 60 human cancer cell lines.[12,49] […] Besides, the cytotoxicity of ILs is strongly correlated to the counter anion. For instance, the cytotoxicity of 1-alkyl-3-methylimidazolium cation [RMIM]^+ follows the following trend; [RMIM][Tf2N] ≫ [RMIM][BF4] > [RMIM][Cl].[50] To our knowledge, no previous studies have been reported so far for using thiazolium ILs for anticancer purposes. These facts have inspired us to design and study the antiproliferative activity of new thiazolium ILs tethering different anions (BF4 (3a–c) and Tf2N (4a–c)) against ovarian carcinoma cell lines (SKOV-3) and normal human skin fibroblast cells (HSF). The 3-(4,5-dimethylthiazol-2-yl)-2,5-diphenyltetrazolium bromide (MTT) assay was used to carry out this study, with cisplatin (CDDP) serving as a positive control. Initially, the impacts of serial concentrations (2.5–100 μM) of the thiazolium ILs on the viability of the SKOV-3 cell lines were assessed as compared to CDDP. […] In general, TILs bound to Tf2N anion (4a–c) inhibited the proliferation of SKOV-3 cells more effectively than the corresponding tetrafluoroborate analogues (3a–c). For instance, [^iPBzTh][Tf2N] (4b) is the most cytotoxic one and can reduce the SKOV-3 cellular viability to a minimum value (10.5 ± 1.7%, Fig. 5A) at its treatment dosage of 100 μM. Conversely, [MBzTh][BF4]
At definite time intervals, the SKOV-3 cell viability has been measured.

A short description of series [10]: Thermal stability by TG/DTG. It is filed as physicochemical. As to conditions: taken from DTG curves. The procedure: The thermogravimetric (TG) curves of the room temperature thiazolium ionic liquids (RTTILs) (3a, 4a–c) (Fig. 1A) were employed for the investigation of their thermal stabilities. It is evident that they are thermally stable up to 270 °C and then undergo a sharp degradation phase in the temperature range of 270–350 °C. […] The first main decomposition phase (∼81% weight loss) starts at 323 °C, followed by a modest decomposition stage between 496 and 618 °C. […] The first thermal degradation step begins at 298 °C (∼52% weight loss) and is followed by two smaller degradation steps at 353 and 418 °C, respectively.

As for `CCCCCCn1cc[n+](C)c1.O=S(=O)([N-]S(=O)(=O)C(F)(F)F)C(F)(F)F` [1-hexyl-3-methylimidazolium bis((trifluoromethyl)sulfonyl)amide], in [1], the MBC is listed as 9.13 mM and the MIC is given as 9.13 mM. In addition, in [2], the MBC is 24.59 mM and the minimal inhibitory concentration (MIC) was 24.59 mM.
Turning to `Cc1ccc(C[n+]2cscc2C)cc1.[Cl-]` [2a, 3-(4-Methylbenzyl)-4-methylthiazol-3-ium chloride], the “MBC ± SD” value in series [3] is 12.25 ± 0.36 mM; in series [3] (listed as [MBzTh][Cl]), 12.25 mM; in [4], 4.25 ± 0.31 mM; in series [4] (listed as [MBzTh][Cl]), 4.25 mM. Besides, the “MIC ± SD” value in series [3] was found to be 6.75 ± 0.35 mM; in [3] (listed as [MBzTh][Cl]), 6.75 mM; in [4], 4.05 ± 0.29 mM; in [4] (listed as [MBzTh][Cl]) it was 4.05 mM.
`Cc1csc[n+]1Cc1ccc(C(C)C)cc1.[Cl-]` [2b, 3-(4-Isopropylbenzyl)-4-methylthiazol-3-ium chloride]: in [3], the “MBC ± SD” value amounted to 5.25 ± 0.29 mM and the “MIC ± SD” value came out at 5.25 ± 0.31 mM. For the same compound, the “Zone of inhibition (ZOI)” value in series [5] is 32.13 mm. Further, in [4], the “MBC ± SD” value came out at 2.35 ± 0.28 mM and the “MIC ± SD” value came out at 2.35 ± 0.27 mM.
In the case of `Cc1csc[n+]1Cc1ccc(C(C)(C)C)cc1.[Cl-]` [2c, 3-(4-(tert-Butyl)benzyl)-4-methylthiazol-3-ium chloride], in series [3], the “MBC ± SD” value amounted to 6.25 ± 0.29 mM and the “MIC ± SD” value is recorded as 6.25 ± 0.27 mM. In series [4], the “MBC ± SD” value amounted to 3.75 ± 0.14 mM and the “MIC ± SD” value is listed as 3.75 ± 0.19 mM.
Consider `Cc1ccc(C[n+]2cscc2C)cc1.F[B-](F)(F)F` [3a, 3-(4-Methylbenzyl)-4-methylthiazol-3-ium tetrafluoroborate], for which the “MBC ± SD” value stood at 5.75 ± 0.45 mM in [3] and 3.25 ± 0.21 mM in series [4]. In addition, the “MIC ± SD” value turned out to be 5.75 ± 0.41 mM in series [3] and 3.25 ± 0.19 mM in [4]. In addition, the IC50 in series [6] (Homo sapiens, Skin fibroblast, 24 h) was 178 ± 8.79 µM; in series [9] it was 78 ± 1.35 µM. In series [7], the viability at 24 h, 200 µM came to 45.5 ± 4.1%. The “η (viscosity)” value in [8] is 439.25 ± 5.3 cP. In addition, the “Zone of inhibition (ZOI)” value in series [5] came out at 39.21 mm. Also, the “Reduction in SKOV-3 viability” value in series [9] (100 μM, 24 h) turned out to be 54.6%. Also, the “Selectivity index (SI)” value in series [9] was 2.28. Besides, in series [10], the “T dec (decomposition temperature)” value was determined as 340.3 °C.
For the compound `Cc1csc[n+]1Cc1ccc(C(C)C)cc1.F[B-](F)(F)F` [3b, 3-(4-Isopropylbenzyl)-4-methylthiazol-3-ium tetrafluoroborate], in series [3], the “MBC ± SD” value is 6.25 ± 0.23 mM and the “MIC ± SD” value stood at 5.25 ± 0.29 mM. The compound also yielded an IC50 in [6] of 152 ± 9.15 µM. For the same compound, the “Zone of inhibition (ZOI)” value in series [5] turned out to be 41.86 mm. Besides, in series [4], the “MBC ± SD” value came out at 2.56 ± 0.15 mM and the “MIC ± SD” value was determined as 2.56 ± 0.13 mM. Further, in series [9], the IC50 was found to be 35.7 ± 1.03 µM and the “Selectivity index (SI)” value stood at 4.26.
As for `Cc1csc[n+]1Cc1ccc(C(C)(C)C)cc1.F[B-](F)(F)F` [3c, 3-(4-(tert-Butyl)benzyl)-4-methylthiazol-3-ium tetrafluoroborate], in series [3], the “MBC ± SD” value is reported as 6.50 ± 0.39 mM and the “MIC ± SD” value came to 6.50 ± 0.39 mM. The same compound came in with an IC50 in [6] of 191 ± 9.85 µM. In addition, the “Zone of inhibition (ZOI)” value in series [5] was determined as 39.02 mm. Moreover, in series [4], the “MBC ± SD” value stood at 3.12 ± 0.14 mM and the “MIC ± SD” value is on record as 3.12 ± 0.19 mM. In [9], inhibition was half-maximal at 51.1 ± 2.33 µM (IC50) and the “Selectivity index (SI)” value was 3.76.
For the compound `[NH2][Pt]([NH2])([Cl])[Cl]` [CDDP, cisplatin, reference compound], 58.3 ± 6.67 µM corresponded to half-maximal inhibition in series [6] (IC50). The SKOV-3 cell viability in [9] (IC50 dose, after 72 h) was 10.2 ± 2.7%. Further, in series [9], the half-inhibitory concentration (IC50) amounted to 79.5 ± 1.18 µM and the “Selectivity index (SI)” value amounted to 0.73.
`CN(C)[C@@H]1C(O)=C(C(N)=O)C(=O)[C@@]2(O)C(O)=C3C(=O)c4c(O)cccc4[C@@](C)(O)[C@H]3C[C@@H]12` [Tetracycline, reference compound] showed a minimum inhibitory concentration (MIC) in series [4] (Staphylococcus aureus, ATCC25923, S. aureus) of 7.2 ± 0.66 mM (≈ 3200 µg/mL).
In the case of Gentamycin [reference compound], the “MIC ± SD” value in series [3] was 6.85 ± 0.63 mM.
